Patent publication US20190152946A1, “Novel Compounds” (GlaxoSmithKline Intellectual Property Development Limited, priority 2016, published 2019)

Columns and labels:
Format in all cases: cell-based
[1] = biological target: T1, BTK (Homo sapiens, UniProt Q06187); assay: Expression proteomics in THP-1 cells, BTK level; settings: BTK protein log2 fold change, 24 h, 1.0 μM
T1 construct: endogenous in cells; host or cells: THP-1
Procedure: (§1) THP-1 cells were seeded at a concentration of 3×10^6 cells in T175 flasks with 60 mL growth medium (RPM11640+10% FBS). […] of a 10× compound solution prepared in growth medium (DMSO), IAP PROTAC) was added and the cells were treated for the indicated time points (6 or 24 h) at 37° C., 5% CO2. For harvesting the cells were collected into falcon tubes on ice, centrifuged and washed twice in cold PBS (Life technologies). After the last washing step the supernatant was removed and the pellets were snap-frozen in liquid N2 and stored at −80° C. and lysed in 2% SDS for 3 min at 95° C. in a thermomixer (Thermo Fisher Scientific), followed by digestion of DNA with Benzonase at 37° C. for 1.5 h. Lysate was cleared by centrifugation an protein concentration in supernatant was determined by BCA assay.
(§2) Leukemia 25, 89-100 (2011).
(§3) Samples were dried in vacuo and resuspended in 0.05% trifluoroacetic acid in water. […]
(§4) Reporter ion intensities were read from raw data and multiplied with ion accumulation times (the unit is milliseconds) so as to yield a measure proportional to the number of ions;
(§5) Nat Biotech 29, 255-265 (2011). this measure is referred to as ion area Savitski, M. M. et al. Delayed Fragmentation and Optimized Isolation Width Settings for Improvement of Protein Identification and Accuracy of Isobaric Mass Tag Quantification on Orbitrap-Type Mass Spectrometers. […]

[2] = biological target: T2, AKT2 (Homo sapiens, UniProt P31751); assay: Expression proteomics in THP-1 cells, AKT2 level; settings: AKT2 protein log2 fold change, 24 h, 1.0 μM
T2 construct: endogenous in cells; host or cells: THP-1
T2 sequence (P31751 whole entry): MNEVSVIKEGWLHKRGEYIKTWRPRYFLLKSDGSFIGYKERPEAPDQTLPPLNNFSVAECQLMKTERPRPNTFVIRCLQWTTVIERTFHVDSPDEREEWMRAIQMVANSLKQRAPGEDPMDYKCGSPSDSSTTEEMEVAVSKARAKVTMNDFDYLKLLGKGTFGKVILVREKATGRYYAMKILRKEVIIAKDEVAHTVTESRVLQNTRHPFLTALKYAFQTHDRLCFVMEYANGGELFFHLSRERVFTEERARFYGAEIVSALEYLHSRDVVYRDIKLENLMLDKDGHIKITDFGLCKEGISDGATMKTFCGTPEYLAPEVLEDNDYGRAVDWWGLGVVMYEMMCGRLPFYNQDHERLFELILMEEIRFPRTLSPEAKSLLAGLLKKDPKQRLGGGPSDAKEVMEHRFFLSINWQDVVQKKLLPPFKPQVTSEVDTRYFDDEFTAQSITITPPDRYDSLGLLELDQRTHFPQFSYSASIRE
Procedure: as §1, §2, §3, §4, §5

[3] = biological target: T3, PTK2 (Homo sapiens, UniProt Q05397); assay: Expression proteomics in THP-1 cells, PTK2 level; settings: PTK2 protein log2 fold change, 24 h, 1.0 μM
T3 construct: endogenous in cells; host or cells: THP-1
T3 sequence (Q05397 whole entry): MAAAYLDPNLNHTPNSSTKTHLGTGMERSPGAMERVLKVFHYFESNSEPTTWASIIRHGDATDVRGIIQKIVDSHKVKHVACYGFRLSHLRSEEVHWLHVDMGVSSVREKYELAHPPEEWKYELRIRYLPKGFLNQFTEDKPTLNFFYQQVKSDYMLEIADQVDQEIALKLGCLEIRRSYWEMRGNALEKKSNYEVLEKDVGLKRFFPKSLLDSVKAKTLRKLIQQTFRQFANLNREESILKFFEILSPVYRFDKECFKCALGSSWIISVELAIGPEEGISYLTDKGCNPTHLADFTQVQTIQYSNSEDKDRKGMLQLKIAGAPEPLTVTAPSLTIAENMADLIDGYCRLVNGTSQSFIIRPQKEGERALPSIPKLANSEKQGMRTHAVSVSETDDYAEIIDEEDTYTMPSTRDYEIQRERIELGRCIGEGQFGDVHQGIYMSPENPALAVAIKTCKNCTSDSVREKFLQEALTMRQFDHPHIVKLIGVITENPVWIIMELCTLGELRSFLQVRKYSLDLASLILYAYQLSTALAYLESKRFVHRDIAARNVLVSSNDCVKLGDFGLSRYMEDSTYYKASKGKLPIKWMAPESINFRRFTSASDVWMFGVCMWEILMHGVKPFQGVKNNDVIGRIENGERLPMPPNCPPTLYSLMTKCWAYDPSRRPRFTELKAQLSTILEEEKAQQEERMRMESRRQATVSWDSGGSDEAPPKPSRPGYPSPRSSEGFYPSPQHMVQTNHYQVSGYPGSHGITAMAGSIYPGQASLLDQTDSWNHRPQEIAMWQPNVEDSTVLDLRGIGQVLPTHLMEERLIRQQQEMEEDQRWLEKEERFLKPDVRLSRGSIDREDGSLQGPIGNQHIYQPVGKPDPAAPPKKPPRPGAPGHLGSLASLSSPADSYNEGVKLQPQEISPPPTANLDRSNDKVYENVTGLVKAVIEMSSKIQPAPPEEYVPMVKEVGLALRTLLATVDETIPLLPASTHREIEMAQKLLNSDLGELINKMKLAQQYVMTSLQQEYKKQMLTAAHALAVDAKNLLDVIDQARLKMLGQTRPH
Procedure: as §1, §2, §3, §4, §5

T1 sequence (Q06187 whole entry): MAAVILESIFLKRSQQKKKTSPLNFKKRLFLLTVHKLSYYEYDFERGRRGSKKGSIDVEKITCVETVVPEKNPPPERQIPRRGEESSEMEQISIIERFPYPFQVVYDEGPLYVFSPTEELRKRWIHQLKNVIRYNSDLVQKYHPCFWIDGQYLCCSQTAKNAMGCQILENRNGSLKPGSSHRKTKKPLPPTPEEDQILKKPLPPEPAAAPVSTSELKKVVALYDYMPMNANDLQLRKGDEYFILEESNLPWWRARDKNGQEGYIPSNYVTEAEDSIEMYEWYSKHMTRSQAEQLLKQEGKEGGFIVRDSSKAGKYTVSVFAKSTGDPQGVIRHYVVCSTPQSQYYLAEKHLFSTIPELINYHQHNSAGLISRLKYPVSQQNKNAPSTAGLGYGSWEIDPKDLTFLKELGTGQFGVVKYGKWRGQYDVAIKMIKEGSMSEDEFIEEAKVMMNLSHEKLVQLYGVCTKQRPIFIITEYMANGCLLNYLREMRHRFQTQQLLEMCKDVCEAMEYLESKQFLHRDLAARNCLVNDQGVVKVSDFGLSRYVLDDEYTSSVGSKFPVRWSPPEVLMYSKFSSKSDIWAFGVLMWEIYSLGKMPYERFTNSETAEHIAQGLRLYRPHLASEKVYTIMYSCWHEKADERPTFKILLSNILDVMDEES

Question: With `CNC(=O)c1ccccc1Nc1nc(Nc2ccc(N3CCN(CCOCCOCCOCCOc4ccc5c(c4)CN(C(=O)[C@@H](NC(=O)[C@H](C)NC)C(C)(C)C)[C@H](C(=O)N[C@@H]4CCCc6ccccc64)C5)CC3)cc2)ncc1Cl` [IAP, (S)-7-(2-(2-(2-(2-(4-(4-((5-Chloro-4-((2-(methylcarbamoyl)phenyl)amino)pyrimidin-2-yl)amino)phenyl)piperazin-1-yl)ethoxy)ethoxy)ethoxy)ethoxy)-2-((S)-3,3-dimethyl-2-((S)-2-(methylamino)propanamido)butanoyl)-N-((R)-1,2,3,4-tetrahydronaphthalen-1-yl)-1,2,3,4-tetrahydroisoquinoline-3-carboxamide] as the compound, how does the “log2fc_IAP_24 h_1.0 μM_n1” value ([1]; replicate n1) read?
Answer: Its value is −1.53.

Question: And the “log2fc_IAP_24 h_1.0 μM_n2” value ([1]; replicate n2)?
Answer: The value was −1.66.

Question: What about the “log2fc_IAP_24 h_1.0 μM_n1” value ([2]; replicate n1) of the same compound?
Answer: Its value is −1.01.

Question: And the “log2fc_IAP_24 h_1.0 μM_n2” value ([2]; replicate n2)?
Answer: The value was −0.89.

Question: And the “log2fc_IAP_24 h_1.0 μM_n1” value ([3]; replicate n1)?
Answer: Its value is −0.90.

Question: What about the “log2fc_IAP_24 h_1.0 μM_n2” value ([3]; replicate n2) of the same compound?
Answer: The value was −1.00.
